Reference: patent US20210071180A1, “MICRORNA 584-5P COMPOSITIONS AND METHODS FOR TREATING CANCER” (BOARD OF REGENTS, THE UNIVERSY OF TEXAS SYSTEM, priority 2018, published 2021)

What was measured:
Type in all cases: cell-based
eIF4E3 = test: qPCR and Western blot of eIF4E3 in MB cells; details: transcript and protein levels, all cell lines tested
[1] = tested on: TUBB3, TUBB2a, and TUBB2b; test: qPCR analysis of β-tubulin isotypes; details: miR-584-5p-overexpressing cells
Procedure: DNA is stained with DAPI (blue), whereas spindle is stained with β-tubulin (red) (below).
VCR disrupts the integrity of the mitotic spindle and destabilizes microtubules (George, P., Journey, L. J. & Goldstein, M. N. J Natl Cancer Inst 35, 355-375 (1965)). Therefore, it was tested whether miR-584-5p and its target genes might affect microtubule dynamics. First, expression of tubulins was deteremined because VCR resistance has been associated with altered expression of tubulin isotypes (Sirotnak, F. M., Danenberg, K. D., Chen, J., Fritz, F. & Danenberg, P. V. Biochem Biophys Res Commun 269, 21-24, (2000)). […] In FIG. 12A, the p-values were calculated using standard Student t-tests. Error bars represent mean±SEM. ****, p<0.0001. […] The p-values were calculated using standard Student t-tests. Error bars represent mean±SEM. To further test how miR-584-5p and its target genes affect spindle integrity, immunofluorescence analysis was performed on miR-584-5p-overexpressing or eIF4E3/HDAC1-silenced MB cells. […] In FIG. 11F, the p-values were calculated using standard Student t-tests. Error bars represent mean±SEM. […] In FIG. 11H, The p-values were calculated using standard Student t-tests. Error bars represent mean±SEM. ****, p<0.0001; ***, p<0.001; **, p<0.01; *, p<0.05. Quantitative real-time PCR. Total RNA was extracted using miRNAeasy kit (Qiagen). […]

MB cells = test: Cell viability, proliferation, clonogenic and transwell migration assays
Procedure: Cell viability and proliferation assays. MB cells transfected with miR-584-5p mimic or target siRNAs were seeded in 96-well plates at a density of 5×10^3 for D556Med and DAOY or 10×10^3 for D425Med and D458Med per well for 72 hours. Cell viability was assessed using CellTiter-Glo (Promega) or alamarBlue (Thermofisher), and proliferation was assessed using CyQuant Direct Cell Proliferation Assay (Thermofisher).
Next, the in vitro results were validated by determining the function of miR-584-5p in MB and by using an in vivo tumor xenograft model to test the efficacy of miR-584-5p-VCR combination therapy. […] In FIG. 3A, cell proliferation was measured by CyQuant Cell Proliferation Assay. The p-values were determined using standard Student t-tests. […] In FIG. 3B, cell proliferation was measured using an IncuCyte phase-only processing module. […] The p-value was calculated using a standard Student t-test. […] The p-value was calculated using a standard Student t-test. […] In FIG. 4F, The p-value was calculated using a standard Student t-test. […] Cell proliferation was measured using an IncuCyte phase-only processing module. ****, p<0.0001. […]
To determine whether miR-584-5p imparts its tumor-suppressing and VCR-sensitizing effect by downregulating HDAC1/eIF4E3 levels in MB, the function of eIF4E3 and HDAC1 in MB was investigated. […] The p-values in FIGS. 6C and D were calculated using a standard Student t-test. […]

## miR-584-5p: microRNA mimic; nucleotide sequence UUAUGGUUUGCCUGGGACUGAG (SEQ ID NO: 1); purchased from Thermofisher (chemistry not given here)
eIF4E3
  expression of eIF4E3: significantly reduced expression
[1]
  transcript levels of TUBB3, TUBB2a, and TUBB2b: significantly reduced transcript levels
MB cells; D556Med cells cotransfected with eIF4E3/HDAC1 expression vector and miR-584-5p mimic
  long-term viability and migration elicited by HDAC1/eIF4E3 overexpression: rescued the increased long-term viability and migration
MB cells; vs miR-NC
  short-term and long-term viability as well as migration of MB cells: reduced
